Where two headings read alike, the source gives them in different places.
What was measured:
[1] = test system: pooled human liver microsomes
[2] = Stability in solution by HPLC analysis; type: physicochemical
Protocol: 4b,5,6,7,8,8a-cis-Hexahydro-2-hydroxy-4b,8,8a-trimethylphenanthren-9,10-dione (OHCT). Spontaneous oxidation of HCT to OHCT was carried out in 100 mM phosphate buffer (pH 7.4) and 1.0 mM HCT in 10% acetonitrile. […]

P. falciparum clone Dd2 = type: cell-based, Plasmodium falciparum
Protocol: Cultures of Plasmodium falciparum.
In vitro antiplasmodial activity: All solutions of chloroquine diphosphate, artemisinin (Sigma Aldrich), and OHCT were prepared in media RPMI 1640, ethanol and 0.1% DMSO, respectively. […] Parasite growth was estimated by microscopic observation of Giemsa-stained blood smears. All results presented are the means of at least three independent experiments.
OHCT action on specific parasite life cycle stages: P. falciparum cultures were synchronized with 5% sorbitol and the Percoll-Sorbitol methods. Dilutions of OHCT, chloroquine, and artemisinin were prepared. To determine the in vitro efficacies of the three antimalarial drugs in culture, serial dilutions were prepared: for artemisinin, chloroquine and OHCT at 2, 4, 8, 16, 32 and 40 μM, respectively. After synchronization, the parasites were plated at the ring stage in 96-well plates. Each plate corresponded to one of the successive 6-h periods of the P. falciparum life cycle.

[3] = Toxicity in mice receiving OHCT; conditions: administration over four days, observed three months after administration
human HepG2 cells [4] = type: cell-based; conditions: for chemoprotection against AFB1 induced cytotoxicity: 2 μM AFB1, HepG2
Protocol: The cell viability MTT assay on human HepG2 cells was carried out as previously reported. Briefly, HepG2 cells were seeded at 30,000 cells/well on a 96 well plate for 4 h before the treatment with AFB1 and OHCT or ketoconazole. After incubation for 72 h, the MTT assay was performed, followed by obtaining the absorbance of each well at 570 nm with a plate reader (μQuant, BioTek Instruments, Vt.). The statistical analyses (one-way ANOVA with Dunnett's test) were performed by GraphPad Prism.

[5] = test system: human liver or lung cells; assay: Toxicity to human liver or lung cells in culture
[6] = target: T1, recombinant human P450 3A4 (Homo sapiens, UniProt P08684); assay: Vivid P450 3A4 activity assay with NADPH regenerating system; type: biochemical; conditions: for decrease of P450 3A4 activity: 2 μM DBOMF
T1 construct: purchased Invitrogen (Carlsbad, Calif.)
T1 sequence (P08684 whole entry): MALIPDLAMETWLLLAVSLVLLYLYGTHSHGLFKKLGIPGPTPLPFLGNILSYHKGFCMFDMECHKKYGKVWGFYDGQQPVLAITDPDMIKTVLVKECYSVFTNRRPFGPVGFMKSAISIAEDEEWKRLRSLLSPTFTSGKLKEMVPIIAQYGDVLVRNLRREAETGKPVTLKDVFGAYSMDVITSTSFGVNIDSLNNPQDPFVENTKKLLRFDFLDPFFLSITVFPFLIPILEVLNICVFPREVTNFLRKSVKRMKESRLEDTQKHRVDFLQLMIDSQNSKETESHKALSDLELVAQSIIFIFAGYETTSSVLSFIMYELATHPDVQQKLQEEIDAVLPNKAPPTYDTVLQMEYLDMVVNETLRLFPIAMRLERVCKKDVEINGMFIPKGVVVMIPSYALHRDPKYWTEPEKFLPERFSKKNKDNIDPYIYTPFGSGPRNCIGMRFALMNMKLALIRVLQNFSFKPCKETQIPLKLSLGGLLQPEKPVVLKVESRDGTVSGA
Protocol: (§1) The Vivid® P450 3A4 activity assay was carried out according to the manufacturer's protocol. Briefly, water (30 μL) and solutions of HCT (10 μL) were added to wells of a 96-well black plate. Master pre-mix solutions (50 μL) containing recombinant human P450 3A4 and rabbit NADPH P450 reductase were then added, and the resulting solutions were equilibrated at room temperature for 20 min. Finally, 10 μL of mixed NADP^+ and DBOMF substrate solutions were added, and the fluorescence intensity over time was recorded with a fluorometer at the excitation and emission wavelengths of 485 and 535 nm, respectively. The final concentrations were 100 mM phosphate buffer (pH 8.0), 3.3 mM glucose-6-phosphate, 0.3 unit/mL glucose-6-phosphate dehydrogenase, 1.0 mM NADP^+, 2 μM DBOMF and 5 nM P450 3A4 with 0.1% DMSO. Control experiments included no DBOMF as the background and 1 μM ketoconazole as the positive control. The rates of the P450 activity were obtained from the slope of the change of the fluorescent intensity over the initial 8 min.
(§2) Enzyme and Cellular Studies with OHCT. The inhibitory effect of OHCT on P450 3A4 and the metabolic conversion of AFB1 with liver microsomes were studied similarly as described for HCT. […] The P450 activity was carried out similarly as described above with concentrations of DBOMF at 0.50, 0.67, 1.0, and 2.0 μM, respectively. The rates of the P450 activity were obtained as the slope of the change of the fluorescent intensity over the initial 4 min. The inhibitory constants of OHCT were obtained from the global best fit of the mixed inhibition model by GraphPad Prism (version 4.00, GraphPad Software, San Diego, Calif.).

CYP3A4 (P450 3A4) = target: T2, CYP3A4 (P450 3A4) (Homo sapiens, UniProt P08684); assay: as above; type: biochemical; conditions: human, recombinant human P450 3A4 with rabbit NADPH P450 reductase, pH 8, probe DBOMF 2 μM; 1 μM, 2 μM DBOMF; read-out: inhibition of the enzyme activity (P450 3A4)
T2 construct: purchased Invitrogen (Carlsbad, Calif.)
T2 sequence (P08684 whole entry): as above
Protocol: as §1, §2

human HepG2 cells [7] = conditions: HepG2, co-treatment with AFB1; Zhou et al. 2006; cited from earlier work
P450 1A/1B = conditions: HepG2, co-treatment with TCDD; cited from earlier work
[8] = 40 μM, 50 μM AFB1, NADPH regenerating system, 37° C. 90 min
[9] = mixed inhibition model, global best fit, substrate DBOMF

O=c1cc(-c2ccccc2)oc2c1ccc1ccccc12 [α-NF, α-naphthoflavone, reference compound]
decrease of aflatoxin Q1 versus no α-NF ([1]; 50 μM): 6 fold | increase of the amount of GSH-AFB1 adducts versus no α-NF ([1]; 50 μM): 2.3 folds

CC1CCCC2(C)c3ccc(O)cc3C(=O)C(=O)C12C (stereo not drawn) [OHCT, 4b,5,6,7,8,8a-cis-Hexahydro-2-hydroxy-4b,8,8a-trimethylphenanthren-9,10-dione]
stability under aqueous conditions ([2]; 72 h at 37° C., HPLC): no degradation | activity against the gametocyte forms of the parasite (P. falciparum clone Dd2; 2 μM): active | decrease of parasitemia (P. falciparum clone Dd2; 16 μM, 8 h, clone Dd2): 50% | killing of chloroquine resistant clone Dd2 (P. falciparum clone Dd2; 24 hr following treatment, concentration dependent): killed | inhibition of early ring, trophozoite and schizont stages (P. falciparum clone Dd2; clone Dd2, 24 hr): equally inhibited | signs of toxicity in mice [3]: no signs of toxicity | cytotoxicity of the compound alone (human HepG2 cells [4]; 60 μM alone, HepG2): no cytotoxicity | cell viability on co-treatment with AFB1 (human HepG2 cells [4]; 60 μM, 2 μM AFB1, HepG2, 72 h, MTT): more than 90% | chemoprotection against AFB1 induced cytotoxicity (human HepG2 cells [4]; 40 and 60 μM): effective chemoprotection | toxicity to human liver or lung cells in culture [5]: no toxicity | inhibition of the metabolic conversion of AFB1 in liver microsomes [1, 8]: inhibition of both GSH-AFB1 adducts and aflatoxin Q1 | stability under aqueous conditions and in the metabolic study of liver microsomes ([1]; liver microsomes, HPLC): no degradation | decrease of P450 3A4 activity ([6]; 20 μM): 50% | Ki (disassociation constant of enzyme inhibitor complex) [6, 9]: 17.6 ± 5.6 µM | Ki′ (disassociation constant of enzyme-substrate inhibitor complex) [6, 9]: 7.6 ± 1.5 µM

CC(=O)N1CCN(c2ccc(OCC3COC(Cn4ccnc4)(c4ccc(Cl)cc4Cl)O3)cc2)CC1 (stereo not shown) [ketoconazole, reference compound]
cell mortality, compound alone (human HepG2 cells [4]; 20 μM alone, HepG2): 20% | chemoprotection against AFB1 induced cytotoxicity (human HepG2 cells [4]; 10 and 20 μM): observed | inhibition of the α-NF stimulated production of exo-AFB1-epoxide [1]: consistently inhibited | inhibition of the metabolism of AFB1 in liver microsomes ([1]; 1 μM, 50 μM AFB1, NADPH regenerating system, 37° C. 90 min): same extent as 40 μM HCT | inhibition at 8 min, 1 μM (CYP3A4 (P450 3A4)): > 90%

CC(C)CCC[C@@H](C)[C@H]1CC[C@H]2[C@@H]3CC=C4C[C@@H](O)CC[C@]4(C)[C@H]3CC[C@]12C [cholesterol, reference compound]
inhibitory effect on the metabolic conversion of AFB1 in liver microsomes ([1]; up to 100 μM): no inhibitory effect

2-hydroxy-cis-terpenone [HCT]
effect of co-treatment on AFB1 induced cytotoxicity including DNA damage and cell death (human HepG2 cells [7]): reduced AFB1 induced cytotoxicity | stability in the phosphate buffer and in the AFB1 metabolic study ([2]; 100 mM phosphate buffer pH 7.4, 37° C.): slow degradation | stability of stock solutions ([2]; acetonitrile, −15° C., several weeks): no significant degradation | effect on TCDD induced P450-1 activity (P450 1A/1B): inhibited | inhibition of the metabolic conversion of AFB1 in liver microsomes [1, 8]: effective inhibition | inhibition of the α-NF stimulated production of exo-AFB1-epoxide ([1]; 40 μM, with 50 μM α-NF): consistently inhibited | inhibition of the carcinogenic conversion of AFB1 with liver microsomes ([1]; 10, 20, 40 μM): inhibited by HCT in a concentration dependent manner | decrease of P450 3A4 activity ([6]; 10 μM): ~30% | decrease of P450 3A4 activity ([6]; 20 μM): ~50% | decrease of P450 3A4 activity ([6]; 40 μM): ~70% | IC50 ([6]; purified P450 3A4, read-out: IC50, inhibition of purified P450 3A4 enzyme activity): 20 µM

From patent US20090149551A1 (priority 2007, published 2009)
